Laboratory results from the NIST ThermoML archive (doi:10.1016/j.tca.2017.05.009).
Numbers after ± are expanded uncertainties.

Settings: Crystal; DTA

`[Sn]` [tin] gave a Normal melting temperature of 231.90 ± 2 °C.
